Series [1] concerns mice treated with peptide Aβ25-35. Nature of the series: In vivo screening of derivatives as neuroprotectors (spontaneous alternation, passive avoidance, ROS level), Aβ25-35 model. As to the method: FIG. 7: Screening of phosphinolactones as neuroprotectors in mice treated with peptide Aβ25-35: (a) spontaneous alternation; (b) passive avoidance step-through latency; (c) Levels of reactive oxygen species in hippocampus. The mice were given compound 3b (0.3, 0.7 mg/kg IP) or a dose of each compound (0.3 mg/kg IP) 20 min before I′Aβ25-35 or the control peptide Sc.Aβ (9 nmol ICV). The animals were tested in the Y-maze on Day 7 after the ICV injections and for passive avoidance on Days 8-9, and then sacrificed. In each graph at (a-c), the 50% protection level compared with the deficit induced by Aβ25-35 is plotted as a dotted line. It is to be noted that at (a), the column represents the median and the error bars represent the deviations 25%-75% (=asymmetric deviations). n=12 at (a, b) and 5-6 at (c). ANOVA on groups 1-4: F(3.63)=7.95, p<0.001 at (b); H=24.1, p<0.0001 at (c); F(3.44)=6.33, p<0.01 at (d). *p<0.05, **p<0.01, ***p<0.001 compared with group (Sc.Aβ+V); #p<0.05, ##p<0.01, ###p<0.001 compared with group (Aβ25-35+V); Dunnett test at (a, c) and Dunn at (b). The values of the groups 5-12 (screened compounds) were analysed by t-test at (a, c) or Mann-Whitney at (b).
From the molecules derived from the synthesis, a panel of 8 derivatives was selected and screened for potential neuroprotective efficacy. The compounds were injected at a dose of 0.3 mg/kg IP, i.e. the maximum non-active dose of 3b and compared with 3b injected at 0.3 and 0.7 mg/kg IP. The compounds were injected […] before the Aß25-35 peptide, and the mice were tested for spontaneous alternation on Day 7, passive avoidance on Days 8 and 9 and the ROS level was measured in the hippocampus (FIG. 7). For each response (spontaneous alternation: FIG. 7a; step-through latency in passive avoidance: FIG. 7b, and DCF fluorescence level: FIG. 7c), a 50% level of the effect between the values of the ScAß and Aß25-35 animals was taken as criterion of efficacy. […] Compound 3c is an isomer at the position of the chlorine atom of 3b. Regarding compound 3n, this has a 5-pyrimidyl group attached to the phosphorus atom, and for compound 3l it is a 4-pyridinyl group.

In a further series the test system is APPSwe mice. Briefly: Spatial learning in pool, APPSwe mice. It is filed as in vivo. As to the method: FIG. 9: Spatial learning in pool (a-c) and object recognition (d-f) for APPSwe mice after 2-month treatment with compound 3b. Pool: acquisition profiles of WT mice treated with V and 3b (2 mg/kg) (a) or APPSwe mice (b). (c) Presence in training quadrant (T) and mean in the other quadrants (o) during trial test performed 48 h after the last training session. Friedman non-parametric ANOVA with repeated measures: Fr=21.7, p<0.001 for the group WT/V, Fr=21.8, p<0.001 for the group WT/3b at (a); Fr=13.0, p<0.05 for group APPSwe/V, Fr=12.2, p<0.05 for group APPSwe/3b at (b). Object recognition: Number of contacts with the objects during sessions 2 and 3 (d) and preferences for object at position 2 computed as contacts (e) or contact time (f). ^∘ p<0.05, ^∘∘ p<0.01 compared with chance level: 15 s at (c), 50% at (e, f), One Sample t-test. ^$ p<0.05, ^$$ p<0.01, ^$$$ p<0.001 compared with the mean of the other quadrants (o) at (c). *p<0.05 compared with group WT/V at (d).
FIG. 11: Spatial learning in pool (a-c) and object recognition (d-f) for APPSwe mice after 2-month treatment with compound 3c. Pool: acquisition profiles of WT mice treated with V and 3c (2 mg/kg) (a) or APPSwe mice (b). (c) Presence in training quadrant (T) and mean in the other quadrants (o) during the trial test performed 48 h after the last training session. Friedman non-parametric ANOVA with repeated measures: Fr=20.7, p<0.001 for group WT/V, Fr=17.5, p<0.001 for group WT/3c at (a); Fr=11.4, p<0.05 for group APPSwe/V, Fr=13.6, p<0.01 for group APPSwe/3b at (b). […]
The pool was a circular water chamber (diameter 140 cm, height 40 cm). […] Swims could be recorded using Videotrack® ViewPoint software, (Champagne-au-Mont-d'Or, France), with trajectories analysed for time and distance. […]
Acquisition phase: this consisted of 3 swims per day for 5 days with an interval of 20 min. […] Swim latency was measured. […] The median of swim times was calculated for each day and expressed for the experimental group as a mean±SEM.
Recall phase: a trial test was conducted […] after the last acquisition session. […] The session was monitored by video and the time spent in the training quadrant (where the platform had been placed) was measured.
After 2-month treatment, the mice were examined with a complex long-term spatial learning test, the locating of an invisible platform in a circular pool 1.5 m in diameter, followed by the object recognition test. […] 48 h after the last acquisition session, the platform was withdrawn from the pool and the time spent in each of the quadrants of the pool was analysed. […]

Regarding `CC1(C)COP(=O)(c2ccc(Cl)cc2)C(C)(C)N1` (racemic) [Compound 3c, (±)-2-(4-Chlorophenyl)-2-oxo-3,3,5,5-tetramethyl-[1,4,2]-oxazaphosphinane], the “criterion of efficacy: 50% level of the effect between ScAβ and Aβ25-35 animals (spontaneous alternation, step-through latency, DCF fluorescence)” value in series [1] (0.3 mg/kg IP) is “met the criterion for the 3 parameters”. Also, in series [1] (Aβ25-35 model), the “efficacy compared with 3b” value was “as effective at 0.3 mg/kg IP as 3b at 0.7 mg/kg IP” and the “efficiency in the screening of the molecules in the series” value is on record as “highly efficient”. In addition, in the series on APPSwe mice (1 mg/kg/d), the “spatial performance of WT mice at trial test” value is “decrease is noted in spatial performance”. The “pool acquisition profile, APPSwe animals” value with APPSwe mice (1 mg/kg/d, 2-month treatment) is “did not affect the acquisition profile”. In the series with APPSwe mice (1 mg/kg/d, 48 h after last training), the “presence in the training quadrant at trial test, APPSwe mice” value was “significantly restored preferred presence in the training quadrant”.
For the compound `CC1(C)COP(=O)(c2cccc(Cl)c2)C(C)(C)N1` (racemic) [Compound 3b, (±)-2-(3-Chlorophenyl)-2-oxo-3,3,5,5-tetramethyl-[1,4,2]-oxazaphosphinane], in series [1] (IP), the “maximum non-active dose of 3b” value was 0.3 mg/kg. The “spatial performance of WT mice at trial test” value in the series on APPSwe mice (2 mg/kg/j IP) is “decrease is noted in spatial performance”.

For the origin of these results see patent US10947260B2, “Phosphinolactone derivatives and pharmaceutical uses thereof” (INSTITUT NATIONAL DE LA SANTE ET DE LA RECHERCHE MEDICALE …, priority 2016, dated 2021).
